According to patent publication US6527981B1, “Azole/amine oxide preservatives” (Lonza Inc., priority 1999, dated 2003):
In brackets after ≈: the same amount, converted by molar mass. Read-outs that look alike come from different tables or passages of the source.

Legend:
[1] = test system: T. versicolor (white rot fungi); test: agar dilution plate method, wood rot fungi (MIC, IC50, percent retardation); type: cell-based; details: for MIC: Trametes versicolor
[2] = test system: G. trabeum (brown rot fungi); test: as above; type: cell-based; details: for MIC: Gloeophyllum trabeum
[3] = test system: P. placenta (brown rot fungi); test: as above; type: cell-based
[4] = test system: C. globosum (soft rot decay fungi); test: as above; type: cell-based; details: for MIC: Chaetomium globosum
[5] = 25° C., cited from earlier work; for Solubility in Water^b: Material Safety Data Sheet; for Solubility in water^a: The Pesticide Manual, 11th Edition
[6] = ppm of amine oxide or didecyldimethyl ammonium chloride, Table2D curve fitting
[7] = amine oxide alone, 100% growth retardation
[8] = azole alone, read-out: T. versicolor MIC
[9] = azole alone, Table2D curve fitting
[10] = azole alone, read-out: G. trabeum MIC
[11] = azole alone, read-out: P. placenta MIC
[12] = azole alone, read-out: C. globosum MIC
[13] = amine oxide alone, 100% growth retardation, read-out: MIC (ppm of amine oxides) T. versicolor
[14] = amine oxide alone, 100% growth retardation, read-out: MIC (ppm of amine oxides) G. trabeum
[15] = amine oxide alone, 100% growth retardation, read-out: MIC (ppm of amine oxides) P. placenta
[16] = amine oxide alone, 100% growth retardation, read-out: MIC (ppm of amine oxides) C. globosum

SMILES | Qa, concentration of amine oxide alone required to yield 100% retardation, T. versicolor ([1]; amine oxide alone) | MIC (ppm of amine oxides) T. versicolor [1, 7] | Qa, concentration of amine oxide alone required to yield 100% retardation, G. trabeum ([2]; amine oxide alone) | MIC (ppm of amine oxides) G. trabeum [2, 7] | Qa, concentration of amine oxide alone required to yield 100% retardation, P. placenta ([3]; amine oxide alone) | MIC (ppm of amine oxides) P. placenta [3, 7] | MIC (ppm of amine oxides) C. globosum [4, 7] | MIC [1, 8] | T. versicolor IC50 [1, 9] | MIC [2, 10] | G. trabeum IC50 [2, 9] | P. placenta IC50 [3, 9] | MIC [3, 11] | MIC [4, 12] | MIC [1, 13] | MIC [2, 14] | MIC [3, 15] | also measured
CCCCCCCCCC[N+](C)(C)CCCCCCCCCC.[Cl-] [Bardac ® 2280, didecyldimethyl ammonium chloride] |  |  |  |  |  |  |  |  |  |  |  |  |  |  |  |  |  | MIC ([1]; Table 8, ppm of amine oxide or didecyldimethyl ammonium chloride, read-out: MIC T. versicolor): > 1000 µg/mL; IC50 T. versicolor [1, 6]: 28 ppm; MIC ([2]; Table 8, ppm of amine oxide or didecyldimethyl ammonium chloride, read-out: MIC G. trabeum): > 1000 µg/mL; IC50 G. trabeum [2, 6]: 8 ppm; MIC ([3]; Table 8, ppm of amine oxide or didecyldimethyl ammonium chloride, read-out: MIC P. placenta): 1000 µg/mL; IC50 P. placenta [3, 6]: <5 ppm; MIC ([4]; read-out: MIC C. globosum): > 1000 µg/mL; IC50 C. globosum [4, 6]: 28 ppm
CCCCCCCCCCCCCCCCCCCCCC[N+](C)(C)[O-] [Behenyl DMAO] | 1000 ppm | >1000 ppm | 1000 ppm | >1000 ppm | 1000 ppm | >1000 ppm | >1000 ppm |  |  |  |  |  |  |  |  |  |  | 
CC(C1CC1)C(O)(Cn1cncn1)c1ccc(Cl)cc1 (centres unmarked) [Cyproconazole, cyproconazole] |  |  |  |  |  |  |  | 2.5 µg/mL (≈ 8.57 µM) | 0.2 ppm | 2.5 µg/mL (≈ 8.57 µM) | 0.3 ppm | 0.7 ppm | 2.5 µg/mL (≈ 8.57 µM) | 25 µg/mL (≈ 85.7 µM) |  |  |  | C. globosum IC50 [4, 9]: 2.3 ppm
CCCCCCCCCC[N+](C)(C)[O-] [Decyl-DMAO, decyl dimethylamine oxide] | 750 ppm |  | 250 ppm |  | 500 ppm |  |  |  |  |  |  |  |  |  | 750 µg/mL (≈ 3720 µM) | 250 µg/mL (≈ 1240 µM) | 500 µg/mL (≈ 2480 µM) | MIC [4, 16]: > 1000 µg/mL
CCCCCCCCCCCC[N+](C)([O-])Cc1ccccc1 (centres unmarked) [Dodecyl-BMAO] |  | >1000 ppm |  | 1000 ppm |  | >1000 ppm | >1000 ppm |  |  |  |  |  |  |  |  |  |  | 
CCCCCCCCCCCC[N+](C)(C)[O-] [Dodecyl-DMAO, dodecyldimethylamine oxide] | 250 ppm |  | 250 ppm |  | 250 ppm |  |  |  |  |  |  |  |  |  | 250 µg/mL (≈ 1090 µM) | 250 µg/mL (≈ 1090 µM) | 250 µg/mL (≈ 1090 µM) | MIC ([4]; read-out: MIC (ppm of amine oxides) C. globosum): > 1000 µg/mL
N#CC(CCc1ccc(Cl)cc1)(Cn1cncn1)c1ccccc1 (centres unmarked) [Fenbuconazole, fenbuconazole] |  |  |  |  |  |  |  | 25 µg/mL (≈ 74.2 µM) | 1.1 ppm | 50 µg/mL (≈ 148 µM) | 0.3 ppm | 3.9 ppm | 25 µg/mL (≈ 74.2 µM) | 50 µg/mL (≈ 148 µM) |  |  |  | C. globosum IC50 [4, 9]: 10.7 ppm; Solubility in Water^b [5]: 4 ppm at 25 °C; Solubility in water^a [5]: 0.2 ppm/25 °C
CCCCCCCCCCCCCCCC[N+](C)(C)[O-] [Hexadecyl-DMAO, hexadecyl dimethylamine oxide] | 1000 ppm |  | 1000 ppm |  | 1000 ppm |  |  |  |  |  |  |  |  |  | > 1000 µg/mL | > 1000 µg/mL | > 1000 µg/mL | MIC [4, 16]: > 1000 µg/mL
CCCCCCCCCCCC[N+]1([O-])CCOCC1 [Lauryl morpholine N-oxide, lauryl morpholine N-oxide] | 750 ppm | 750 ppm | 1000 ppm | 1000 ppm | 500 ppm | 500 ppm | >1000 ppm |  |  |  |  |  |  |  |  |  |  | 
CCCCC(C#N)(Cn1cncn1)c1ccc(Cl)cc1 (centres unmarked) [Myclobutanil, myclobutanil] |  |  |  |  |  |  |  | 50 µg/mL (≈ 173 µM) | 6 ppm | > 50 µg/mL | 4.3 ppm | 13 ppm | 50 µg/mL (≈ 173 µM) | > 50 µg/mL |  |  |  | Solubility in Water^b [5]: 142 ppm at 25 °C; Solubility in water^a [5]: 142 ppm/25 °C
